PubChem BioAssay (NCI)
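Step 1: Grow cells in 96-well plates. Step 2: Expose to compound for 48 hours at 5 concentrations. Step 3: Interpolate endpoints linearly; if unreached, use highest concentration. The concentration for full growth arrest is given as TGI.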

Tests used:
Assay in all cases: NCI tumour cell line growth inhibition, 48 h
CAKI-1 renal = tested on: CAKI-1 renal
CCRF-CEM leukemia = tested on: CCRF-CEM leukemia
HL-60(TB) leukemia = tested on: HL-60(TB) leukemia
HT29 colon = tested on: HT29 colon
NCI-H460 lung = tested on: NCI-H460 lung
NCI-H522 lung = tested on: NCI-H522 lung
OVCAR-8 ovarian = tested on: OVCAR-8 ovarian
SF-539 CNS = tested on: SF-539 CNS
SK-MEL-28 melanoma = tested on: SK-MEL-28 melanoma
SK-MEL-5 melanoma = tested on: SK-MEL-5 melanoma
UACC-62 melanoma = tested on: UACC-62 melanoma

Structure (SMILES)	TGI (CAKI-1 renal) [µM]	TGI (CCRF-CEM leukemia) [µM]	TGI (HL-60(TB) leukemia) [µM]	TGI (HT29 colon) [µM]	TGI (NCI-H460 lung) [µM]	TGI (NCI-H522 lung) [µM]	TGI (OVCAR-8 ovarian) [µM]	TGI (SF-539 CNS) [µM]	TGI (SK-MEL-28 melanoma) [µM]	TGI (SK-MEL-5 melanoma) [µM]	TGI (UACC-62 melanoma) [µM]
O=C(NNC(c1ccccc1)C(F)(F)F)c1ccncc1 (centres undefined)	> 100	> 100	> 100	> 100	> 100	> 100	> 100	> 100	> 100	> 100	–
[N-]=[N+]=Nc1c(C=O)c(=O)n(-c2ccccc2)c2ccccc12	27.7	18.9	> 100	55.1	> 100	–	–	> 100	35.3	27.5	28.8
O=C1O[C@H]2[C@H](O)[C@@H](OC(=O)c3cc(O)c(O)c4c3[C@@H]3C1=CC(=O)C(O)(O)C3(O)O4)[C@H](OC(=O)c1cc(O)c(O)c(O)c1)O[C@@H]2CO (some centres undefined)	> 100	46.1	> 100	> 100	> 100	> 100	> 100	–	> 100	> 100	> 100
CCOC(=O)Cc1csc2[n+]1C(=O)/C(=C/c1cccc(OC)c1O)S2	> 100	–	> 100	> 100	> 100	–	> 100	> 100	> 100	> 100	> 100
NC(=O)NC(=O)c1cccc(CNc2ccc(C(=O)N[C@@H](CCC(=O)O)C(=O)O)cc2)n1	> 100	–	> 100	> 100	> 100	> 100	> 100	> 100	> 100	> 100	> 100
COc1ccc(/C=C2\CCC(C)/C(=C\c3ccc(OC)c(OC)c3)C2=O)cc1OC (centres undefined)	21.6	7.6	5.93	52.9	–	–	39.8	13.8	48.1	17.5	23.1
c1ccc(P(CCP(c2ccccn2)c2ccccn2)c2ccccc2)cc1	> 100	–	78.2	> 100	> 84.9	–	> 100	> 100	> 100	> 100	> 100
Cc1ccc2c(sc(-c3ccc4c(c3)sc(-c3ccc5c(c3)sc(-c3ccc(N(C)C)cc3)[n+]5C)[n+]4C)[n+]2C)c1S(=O)(=O)O (tested in a mixture with another compound)	–	–	> 100	> 100	–	> 100	> 100	> 100	> 100	> 100	> 100
